The source of these data is US20060178352A1, “Use of androgens to reduce the likelihood of acquiring or to treat skin aging” (Endorecherche, Inc., priority 2004, published 2006).

Molecules are shown by their SMILES. Where two headings read alike, the source gives them in different places.

One assay relates to mouse dorsal skin. The assay is classed as in vivo. To be noted: for Effect on hypodermal thickness: GDX animals of both sexes, p<0.01; for Dermis % (proportion of skin layer) / Epidermis % (proportion of skin layer) / Hypodermis % (proportion of skin layer) / Dermis T (thickness) / Epidermis T (thickness) / Hypodermis T (thickness): 3 weeks treatment; for Dermis T (thickness) / Epidermis T (thickness) / Hypodermis T (thickness): mean ± SEM. The procedure: (§1) Fifty six adult male and female C57BL6 mice 13-15 weeks of age were obtained from Harlan Laboratory (Indiana, USA). […] Animals of intact and GDX control groups were treated with the vehicle alone during the same period. Six hours after the last treatment, all animals were sacrificed.
Since DHT is known to be poorly active by the oral route, it was injected subcutaneously. To determine the DHT dose, a preliminary dose-range study was performed (see supplementary online material, online Table S1).
After shaving the long hair, the dorsal skin was excised, flattened and immediately immersed in 10% buffered formalin. A sample was embedded in paraffin blocks from which 4 μm sections were cut and routinely stained.
Under the light microscope, measurements were performed using the IMAGE-PRO PLUS (Media Cybernetics, USA). Twenty-five readings were scored from each skin layer of each animal. The epidermal thickness was measured from stratum basale to stratum granulosum (excluding stratum corneum), whereas the dermal thickness was the distance between the epidermis and the hypodermis. Finally, the hypodermal thickness was measured as the distance between the dermis and the panniculus carnosus.

A further assay has as its system androgen receptor (AR). Nature of the assay: Immunohistochemistry of androgen receptor in epidermis of mouse dorsal skin. To be noted: GDX males and females, 3 weeks treatment. Type of assay: in vivo. The procedure: as §1
The conditions of assay [1]: men and women 60-79 years, oral 50 mg once daily, cited from earlier work.
The conditions of assay [2]: aged individuals, particularly women >70 years; cited from earlier work.
The mark [3] stands for this setting: GDX females, versus GDX control.

On to `C[C@]12CCC(=O)C[C@@H]1CC[C@@H]1[C@@H]2CC[C@]2(C)[C@@H](O)CC[C@@H]12` [DHT, 5α-androstane-17β-ol-3-one], for which, in the assay with mouse dorsal skin, the “Effect on hypodermal thickness” value is on record as “markedly decreased”. For the same molecule, in the assay on mouse dorsal skin (GDX female mice), the “Dermis % (proportion of skin layer)” value stood at 79.5%, the “Epidermis % (proportion of skin layer)” value came out at 2.5%, the “Hypodermis % (proportion of skin layer)” value stood at 18% and the “Dermis T (thickness)” value was 307 ± 13.3^++ μm. Also, in the assay with mouse dorsal skin (GDX female mice), the “Epidermis T (thickness)” value is listed as 9.6 ± 0.2 μm and the “Hypodermis T (thickness)” value is recorded as 70 ± 4.6^++ μm. Besides, the “Effect on dermal thickness (in words)” value in the assay on mouse dorsal skin (GDX females) is “increase”. For the same molecule, in the assay with mouse dorsal skin (setting [3]), the “Increase in dermal thickness” value was found to be 47%. Besides, in the assay with mouse dorsal skin (GDX male mice), the “Dermis % (proportion of skin layer)” value stood at 93%, the “Epidermis % (proportion of skin layer)” value is 2.1%, the “Hypodermis % (proportion of skin layer)” value turned out to be 4.9% and the “Dermis T (thickness)” value came to 451 ± 24.1 μm. Besides, in the assay with mouse dorsal skin (GDX male mice), the “Epidermis T (thickness)” value is listed as 10 ± 0.2 μm and the “Hypodermis T (thickness)” value is given as 24 ± 1.9 μm.
On to `C[C@]12CC[C@@H]3c4ccc(O)cc4CC[C@H]3[C@@H]1CC[C@@H]2O` [E2], for which, in the assay with mouse dorsal skin, the “Effect on hypodermal thickness” value is reported as “markedly decreased”. Further, the “AR labeling / expression in epidermal nuclei” value in the assay with androgen receptor (AR) is given as “weak AR labeling”.
Consider `C[C@]12CC[C@H](O)CC1=CC[C@@H]1[C@@H]2CC[C@]2(C)C(=O)CC[C@@H]12` [DHEA, dehydroepiandrosterone], for which, in assay [1] (1 year), the “Facial skin pigmentation (yellowness)” value is recorded as “significantly decreased”; the “Other components of skin colour (lightness and redness)” value was “remained stable”. Also, the Skin surface hydratation result in assay [1] (after 12 months) is “significantly increased”. In addition, in assay [2], the Sebum production entry is “increase”. The “Effect on hypodermal thickness” value in the assay on mouse dorsal skin was “markedly decreased”. In addition, in the assay on mouse dorsal skin (GDX female mice), the “Dermis % (proportion of skin layer)” value is reported as 75.8%, the “Epidermis % (proportion of skin layer)” value is 3.2%, the “Hypodermis % (proportion of skin layer)” value was found to be 21% and the “Dermis T (thickness)” value is on record as 249 ± 11.8^+ μm. Also, in the assay with mouse dorsal skin (GDX female mice), the “Epidermis T (thickness)” value is listed as 10.5 ± 0.3^+ μm and the “Hypodermis T (thickness)” value is listed as 69 ± 4.5^++ μm. Also, the “Effect on dermal thickness (in words)” value in the assay on mouse dorsal skin (GDX females) is “increase”. Moreover, in the assay with mouse dorsal skin (setting [3]), the “Increase in dermal thickness” value is recorded as 19%. The “Increase in epidermal thickness” value with mouse dorsal skin (GDX females, versus GDX control, p<0.05) is listed as 13%. Also, in the assay with mouse dorsal skin (GDX male mice), the “Dermis % (proportion of skin layer)” value is 92.8%, the “Epidermis % (proportion of skin layer)” value is on record as 1.7%, the “Hypodermis % (proportion of skin layer)” value is listed as 5.5% and the “Dermis T (thickness)” value is 486 ± 28.7 μm. In the assay with mouse dorsal skin (GDX male mice), the “Epidermis T (thickness)” value was 8.9 ± 0.3 μm and the “Hypodermis T (thickness)” value came out at 29 ± 6.2 μm.
